# Results taken from ChEMBL document CHEMBL1139236, “Introduction of non-natural amino acid residues into the substrate-specific P1 position of trypsin inhibitor SFTI-1 yields potent chymotrypsin and cathepsin G inhibitors” (Bioorg Med Chem, 2009).
# Bridge positions count the residues as written; N and C are the ends. Square brackets hold non-standard residues; d marks the D form. Peptide text beside a SMILES is read from it. Phe(4-NO2) = N[C@@H](Cc1ccc([N+](=O)[O-])cc1)C(=O)O; Phe(4-guanidino) = N=C(N)Nc1ccc(C[C@H](N)C(=O)O)cc1; Phe(4-NH2) = Nc1ccc(C[C@H](N)C(=O)O)cc1; Phe(4-F) = N[C@@H](Cc1ccc(F)cc1)C(=O)O; Phe(4-Me) = Cc1ccc(C[C@H](N)C(=O)O)cc1; 4Pal = N[C@@H](Cc1ccncc1)C(=O)O
# How the values were obtained:
# [1] = target: T1, Cathepsin G (Homo sapiens) (UniProt P08311); assay: Inhibition of cathepsin G assessed as association equilibrium constant
# T1 sequence (whole entry): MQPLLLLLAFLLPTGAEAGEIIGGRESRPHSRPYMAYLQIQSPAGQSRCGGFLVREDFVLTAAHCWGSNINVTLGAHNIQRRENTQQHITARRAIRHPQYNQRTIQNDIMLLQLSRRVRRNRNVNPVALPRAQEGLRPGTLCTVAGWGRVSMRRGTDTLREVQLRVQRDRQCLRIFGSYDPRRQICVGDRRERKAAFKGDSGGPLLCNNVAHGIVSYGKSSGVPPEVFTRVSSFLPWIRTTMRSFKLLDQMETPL
# [2] = target: Chymotrypsinogen A (Bos taurus) (UniProt P00766); assay: Inhibition of bovine alpha-chymotrypsin assessed as association equilibrium constant relative to [Phe5]SFTI-1
# [3] = target: Chymotrypsinogen A (Bos taurus) (UniProt P00766); assay: Inhibition of bovine alpha-chymotrypsin assessed as association equilibrium constant
# [4] = target: T1, Cathepsin G (Homo sapiens); assay: Inhibition of cathepsin G assessed as association equilibrium constant relative to [Phe5]SFTI-1
# Cathepsin G = target: T2, Cathepsin G (Homo sapiens, UniProt P08311); assay: Inhibition of cathepsin G
# T2 sequence (P08311 whole entry): T1 sequence (whole entry)
# Serum = assay: Stability in human serum at 2 mg/mL up to 24 hrs; assay type: ADME, cell-free
Ka [1],Ratio [2],Ka [3],Ratio [4],Ki (Cathepsin G),Stability (Serum),Structure (SMILES)
< 1 ×10⁵ /M,5.5,1.1 ×10¹⁰ /M,–,–,–,CC[C@H](C)[C@@H]1NC(=O)[C@@H]2CCCN2C(=O)[C@@H]2CCCN2C(=O)[C@H]([C@@H](C)CC)NC(=O)[C@H](CO)NC(=O)[C@H](Cc2ccncc2)NC(=O)[C@H]([C@@H](C)O)NC(=O)[C@@H](NC(=O)[C@H](CCCNC(=N)N)NC(=O)CN)CSSC[C@@H](C(=O)N[C@@H](Cc2ccccc2)C(=O)N2CCC[C@H]2C(=O)N[C@@H](CC(=O)O)C(=O)O)NC1=O (H-GRCT[4Pal]SIPPICFPD-OH; disulfide 3-11)
3.6 ×10⁶ /M,9.5,1.9 ×10¹⁰ /M,0.97,–,–,CC[C@H](C)[C@@H]1NC(=O)[C@@H]2CCCN2C(=O)[C@@H]2CCCN2C(=O)[C@H]([C@@H](C)CC)NC(=O)[C@H](CO)NC(=O)[C@H](Cc2ccc(N)cc2)NC(=O)[C@H]([C@@H](C)O)NC(=O)[C@@H](NC(=O)[C@H](CCCNC(=N)N)NC(=O)CN)CSSC[C@@H](C(=O)N[C@@H](Cc2ccccc2)C(=O)N2CCC[C@H]2C(=O)N[C@@H](CC(=O)O)C(=O)O)NC1=O (H-GRCT[Phe(4-NH2)]SIPPICFPD-OH; disulfide 3-11)
–,–,5 ×10⁶ /M,–,–,–,CC[C@H](C)[C@@H]1NC(=O)[C@@H]2CCCN2C(=O)[C@@H]2CCCN2C(=O)[C@H]([C@@H](C)CC)NC(=O)[C@H](CO)NC(=O)[C@H](CCCCN)NC(=O)[C@H]([C@@H](C)O)NC(=O)[C@@H](NC(=O)[C@H](CCCNC(=N)N)NC(=O)CN)CSSC[C@@H](C(=O)N[C@@H](Cc2ccccc2)C(=O)N2CCC[C@H]2C(=O)N[C@@H](CC(=O)O)C(=O)O)NC1=O
3.7 ×10⁶ /M,–,2 ×10⁹ /M,–,–,–,CC[C@H](C)[C@@H]1NC(=O)[C@@H]2CCCN2C(=O)[C@@H]2CCCN2C(=O)[C@H]([C@@H](C)CC)NC(=O)[C@H](CO)NC(=O)[C@H](Cc2ccccc2)NC(=O)[C@H]([C@@H](C)O)NC(=O)[C@@H](NC(=O)[C@H](CCCNC(=N)N)NC(=O)CN)CSSC[C@@H](C(=O)N[C@@H](Cc2ccccc2)C(=O)N2CCC[C@H]2C(=O)N[C@@H](CC(=O)O)C(=O)O)NC1=O (H-GRCTFSIPPICFPD-OH; disulfide 3-11)

# More lines, now with the values behind:
Structure (SMILES),Ka [1],Ratio [2],Ka [3],Ratio [4],Ki (Cathepsin G),Stability (Serum)
CC[C@H](C)[C@@H]1NC(=O)[C@@H]2CCCN2C(=O)[C@@H]2CCCN2C(=O)[C@H]([C@@H](C)CC)NC(=O)[C@H](CO)NC(=O)[C@H](Cc2ccc(O)cc2)NC(=O)[C@H]([C@@H](C)O)NC(=O)[C@@H](NC(=O)[C@H](CCCNC(=N)N)NC(=O)CN)CSSC[C@@H](C(=O)N[C@@H](Cc2ccccc2)C(=O)N2CCC[C@H]2C(=O)N[C@@H](CC(=O)O)C(=O)O)NC1=O (H-GRCTYSIPPICFPD-OH; disulfide 3-11),< 1 ×10⁵ /M,9.5,1.9 ×10¹⁰ /M,–,–,–
CC[C@H](C)[C@@H]1NC(=O)[C@@H]2CCCN2C(=O)[C@@H]2CCCN2C(=O)[C@H]([C@@H](C)CC)NC(=O)[C@H](CO)NC(=O)[C@H](Cc2ccc(C)cc2)NC(=O)[C@H]([C@@H](C)O)NC(=O)[C@@H](NC(=O)[C@H](CCCNC(=N)N)NC(=O)CN)CSSC[C@@H](C(=O)N[C@@H](Cc2ccccc2)C(=O)N2CCC[C@H]2C(=O)N[C@@H](CC(=O)O)C(=O)O)NC1=O (H-GRCT[Phe(4-Me)]SIPPICFPD-OH; disulfide 3-11),2.8 ×10⁶ /M,12.5,2.5 ×10¹⁰ /M,0.76,–,–
CC[C@H](C)[C@@H]1NC(=O)[C@@H]2CCCN2C(=O)[C@@H]2CCCN2C(=O)[C@H]([C@@H](C)CC)NC(=O)[C@H](CO)NC(=O)[C@H](Cc2ccc(F)cc2)NC(=O)[C@H]([C@@H](C)O)NC(=O)[C@@H](NC(=O)[C@H](CCCNC(=N)N)NC(=O)CN)CSSC[C@@H](C(=O)N[C@@H](Cc2ccccc2)C(=O)N2CCC[C@H]2C(=O)N[C@@H](CC(=O)O)C(=O)O)NC1=O (H-GRCT[Phe(4-F)]SIPPICFPD-OH; disulfide 3-11),3.8 ×10⁶ /M,15,3 ×10¹⁰ /M,1.02,–,–
CC[C@H](C)[C@@H]1NC(=O)[C@@H]2CCCN2C(=O)[C@@H]2CCCN2C(=O)[C@H]([C@@H](C)CC)NC(=O)[C@H](CO)NC(=O)[C@H](CCCCN)NC(=O)[C@H]([C@@H](C)O)NC(=O)[C@@H]2CSSC[C@H](NC1=O)C(=O)N[C@@H](Cc1ccccc1)C(=O)N1CCC[C@H]1C(=O)N[C@@H](CC(=O)O)C(=O)NCC(=O)N[C@@H](CCCNC(=N)N)C(=O)N2,5.7 ×10⁶ /M,–,5.2 ×10⁶ /M,1.54,0.15 nM,–
CC[C@H](C)[C@@H]1NC(=O)[C@@H]2CCCN2C(=O)[C@@H]2CCCN2C(=O)[C@H]([C@@H](C)CC)NC(=O)[C@H](CO)NC(=O)[C@H](Cc2ccc([N+](=O)[O-])cc2)NC(=O)[C@H]([C@@H](C)O)NC(=O)[C@@H](NC(=O)[C@H](CCCNC(=N)N)NC(=O)CN)CSSC[C@@H](C(=O)N[C@@H](Cc2ccccc2)C(=O)N2CCC[C@H]2C(=O)N[C@@H](CC(=O)O)C(=O)O)NC1=O (H-GRCT[Phe(4-NO2)]SIPPICFPD-OH; disulfide 3-11),< 1 ×10⁵ /M,13,2.6 ×10¹⁰ /M,–,–,–
CC[C@H](C)[C@@H]1NC(=O)[C@@H]2CCCN2C(=O)[C@@H]2CCCN2C(=O)[C@H]([C@@H](C)CC)NC(=O)[C@H](CO)NC(=O)[C@H](Cc2ccc(NC(=N)N)cc2)NC(=O)[C@H]([C@@H](C)O)NC(=O)[C@@H](NC(=O)[C@H](CCCNC(=N)N)NC(=O)CN)CSSC[C@@H](C(=O)N[C@@H](Cc2ccccc2)C(=O)N2CCC[C@H]2C(=O)N[C@@H](CC(=O)O)C(=O)O)NC1=O (H-GRCT[Phe(4-guanidino)]SIPPICFPD-OH; disulfide 3-11),8.1 ×10⁷ /M,0.09,1.8 ×10⁸ /M,2.19,–,Stable
